The structures appear in SMILES notation.

The values that follow come from patent US8637526B2, “Pyrazolopyrimidine JAK inhibitor compounds and methods” (Genentech, Inc., priority 2008, dated 2014).

In assay [1] the test system is Set-2 cells, which express the JAK2V617F mutant protein. Nature of the assay: STAT5 phosphorylation in Set-2 cells (JAK2-dependent signaling, MSD). The assay is classed as cell-based. Particulars: Homo sapiens, SET-2, 1 h, read-out: pSTAT5 SET2 EC50. As for the experimental part:
The activities of compounds were determined in cell-based assays that are designed to measure JAK2-dependent signaling or proliferation. Compounds were serially diluted in DMSO and incubated with Set-2 cells (German Collection of Microorganisms and Cell Cultures (DSMZ); Braunschweig, Germany), which express the JAK2V617F mutant protein, in 96-well microtiter plates for 1 hr at 37° C. in RPMI medium at a final cell density of 100,000 cells per well and a final DMSO concentration of 0.57%. Compound-mediated effects on STATS phosphorylation were then measured in the lysates of incubated cells using the Meso Scale Discovery (MSD) technology (Gaithersburg, Md.) according to the manufacturer's protocol and EC50 values were determined. Alternatively, serially diluted compounds were added to 384-well microtiter plates in RPMI medium with 10% fetal bovine serum (Invitrogen Corp.; Carlsbad, Calif.) at a final cell density of 2500 cells per well and a final DMSO concentration of 0.3% and incubated at 37° C. for 72 hours. Cell viability was then determined using the CellTiter-Glo® Luminescent Cell Viability Assay according to the manufacturer's protocol (Promega; Madison, Wis.) and EC50 values were determined.

A further assay deals with NK92 cells. Nature of the assay: IL-12-stimulated STAT4 phosphorylation in NK92 cells (TYK2-dependent signaling, MSD). The assay is classed as cell-based. Particulars: NK92, 1 h, read-out: IL12-pSTAT4 NK92 EC50. The protocol:
The activities of compounds were determined in cell-based assays that are designed to measure TYK2-dependent signaling. Compounds were serially diluted in DMSO and incubated with NK92 cells (American Type Culture Collection (ATCC); Manassas, Va.) in 96-well microtiter plates in RPMI medium at a final cell density of 100,000 cells per well and a final DMSO concentration of 0.57%. Human recombinant IL-12 (R&D systems; Minneapolis, Minn.) was then added at a final concentration of 10 ng/mL to the microtiter plates containing the NK92 cells and compound and the plates were incubated for 1 hr at 37° C. Compound-mediated effects on STAT4 phosphorylation were then measured in the lysates of incubated cells using the Meso Scale Discovery (MSD) technology (Gaithersburg, Md.) according to the manufacturer's protocol and EC50 values were determined

Assay [2] concerns TF-1 cells. In words: IL-6-stimulated STAT3 phosphorylation in TF-1 cells (JAK1-dependent signaling, MSD). The assay is classed as cell-based. The following applies: Homo sapiens, TF-1, 0.5 h, read-out: IL6-pSTAT3 TF1 EC50. As for the experimental part:
(§1) The activities of compounds were determined in cell-based assays that are designed to measure JAK1 or JAK2-dependent signaling. Compounds were serially diluted in DMSO and incubated with TF-1 cells (American Type Culture Collection (ATCC); Manassas, Va.) in 384-well microtiter plates in OptiMEM medium without phenol red, 1% Charcoal/Dextran stripped FBS, 0.1 mM NEAA, 1 mM sodium pyruvate (Invitrogen Corp.; Carlsbad, Calif.) at a final cell density of 100,000 cells per well and a final DMSO concentration of 0.2%. Human recombinant IL-6 (R&D systems; Minneapolis, Minn.) or EPO (Invitrogen Corp.; Carlsbad, Calif.) was then added at a final concentration of 30 ng/mL or 10 Units/mL, respectively, to the microtiter plates containing the TF-1 cells and compound and the plates were incubated for 30 min at 37° C. Compound-mediated effects on STAT3 or STATS phosphorylation were then measured in the lysates of cells incubated in the presence of IL-6 or EPO, respectively, using the Meso Scale Discovery (MSD) technology (Gaithersburg, Md.) according to the manufacturer's protocol and EC50 values were determined.

Assay [3] deals with TF-1 cells. In words: EPO-stimulated STAT5 phosphorylation in TF-1 cells (JAK2-dependent signaling, MSD). The following applies: Homo sapiens, TF-1, 0.5 h, read-out: EPO pSTAT5 TF1 EC50. The assay is classed as cell-based. As for the experimental part:
as §1

Another assay has as its target human JAK3 kinase domain (Homo sapiens (Human), UniProt P52333). In words: biochemical. The assay is classed as biochemical. Particulars: enzymatic activity, 5 uM ATP; read-out: JAK3 Ki. The protocol:
The activity of the JAK1, JAK2, JAK3 or TYK2 kinase domains was measured in vitro by monitoring phosphorylation of JAK3 derived peptides using the Caliper LabChip technology.
(§2) The activity of the isolated JAK3 kinase domain was measured by monitoring phosphorylation of a peptide derived from JAK3 ([…] fluorescently labeled on the N-terminus with 5-carboxyfluorescein using the Caliper LabChip technology (Caliper Life Sciences, Hopkinton, Mass.). […] Reactions were incubated at 22° C. in 384-well polypropylene microtiter plates for 30 minutes and then stopped by addition of 25 uL of an EDTA containing solution (100 mM Hepes pH 7.2, 0.015% Brij-35, 150 mM EDTA), resulting in a final EDTA concentration of 50 mM. After termination of the kinase reaction, the proportion of phosphorylated product was determined as a fraction of total peptide substrate using the Caliper LabChip 3000 according to the manufacturer's specifications.

The target of a further assay is human JAK1 kinase domain (Homo sapiens (Human), UniProt P23458). In words: JAK1 Inhibition Assay Protocol (Caliper LabChip peptide phosphorylation). The assay is classed as biochemical. Particulars: enzymatic activity, 25 uM ATP.
Sequence of human JAK1 kinase domain (P23458 852-1154): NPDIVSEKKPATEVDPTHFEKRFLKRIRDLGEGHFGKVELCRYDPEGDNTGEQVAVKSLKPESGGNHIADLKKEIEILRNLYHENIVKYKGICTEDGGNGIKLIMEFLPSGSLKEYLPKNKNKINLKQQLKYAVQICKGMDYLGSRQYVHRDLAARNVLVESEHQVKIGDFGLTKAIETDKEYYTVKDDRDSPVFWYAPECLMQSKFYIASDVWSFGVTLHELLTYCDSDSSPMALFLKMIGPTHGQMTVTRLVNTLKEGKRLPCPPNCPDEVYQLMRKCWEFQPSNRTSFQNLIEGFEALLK
From the text: The catalytically active kinase domain of human JAK1, JAK2, JAK3 or TYK2 was purified from extracts of SF9 insect cells infected with a recombinant baculovirus expression vector encoding the human JAK1, JAK2, JAK3 or TYK2 kinase domains (JAK1 amino acid residues N852-D1154 according to the numbering of GenBank sequence accession number P23458, JAK2 amino acid residues D812-G1132 according to the numbering of GenBank sequence accession number NP_004963.1; JAK3 amino acid residues S783-S1124 according to the numbering of GenBank sequence accession number P52333, and TYK2 amino acid residues N873-C1187 according to the numbering of GenBank sequence accession number P29597). The activity of the JAK1, JAK2, JAK3 or TYK2 kinase domains can be measured by a number of direct and indirect methods, including quantification of phosphorylation of peptide substrates derived from the human JAK3 protein (Saltzman et al., Biochem. Biophys. Res. Commun. 246:627-633 (2004)). The activity of the JAK1, JAK2, JAK3 or TYK2 kinase domains was measured in vitro by monitoring phosphorylation of JAK3 derived peptides using the Caliper LabChip technology.
as §2, with “isolated JAK1 or TYK2” for “isolated JAK3”, “specifications. Ki values were then determined using the Morrison tight binding model (Morrison, J. F., Biochim. Biophys. Acta. 185:269-296 (1969); William, J. W. and Morrison, J. F., Meth. Enzymol., 63:437-467 (1979)).” for “specifications.”

Sequence of human JAK3 kinase domain (P52333 783-1124): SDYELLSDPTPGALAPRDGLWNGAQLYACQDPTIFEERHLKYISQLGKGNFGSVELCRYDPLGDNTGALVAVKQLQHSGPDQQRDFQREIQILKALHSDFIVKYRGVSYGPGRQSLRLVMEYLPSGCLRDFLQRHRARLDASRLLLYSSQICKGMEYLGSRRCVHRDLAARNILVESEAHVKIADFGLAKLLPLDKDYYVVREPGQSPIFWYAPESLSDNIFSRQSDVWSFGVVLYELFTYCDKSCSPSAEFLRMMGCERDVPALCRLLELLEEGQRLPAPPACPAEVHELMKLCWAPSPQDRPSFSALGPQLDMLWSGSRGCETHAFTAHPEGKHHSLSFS

On to `Cc1ccc(C)c(-c2nn(C)cc2NC(=O)c2cnn3ccc(N)nc23)c1` [Example 225, 5-amino-N-(3-(2,5-dimethylphenyl)-1-methyl-1H-pyrazol-4-yl)pyrazolo[1,5-a]pyrimidine-3-carboxamide], for which the EC50 (as a rule, the concentration giving half of the maximal effect) in assay [1] was found to be 12.8 nM; in the assay with NK92 cells, 119 nM; with TF-1 cells [2] it was 130 nM.
In the case of `Nc1ccn2ncc(C(=O)Nc3conc3-c3cccc(Cl)c3)c2n1` [Example 250, 5-Amino-pyrazolo[1,5-a]-pyrimidine-3-carboxylic acid [3-(3-chloro-phenyl)-isoxazol-4-yl]-amide], the concentration for a half-maximal effect (EC50) worked out at 340 nM in the assay with TF-1 cells [3], 105 nM in the assay on NK92 cells and 839 nM in the assay with TF-1 cells [2]. Also, the Ki (in general, a measure of affinity in units of concentration, obtained from inhibition or displacement) stood at 55.6 nM at human JAK3 kinase domain and 28.4 nM at human JAK1 kinase domain.
